The text below walks through data of publication PMC6010133, “Synthesis and biological evaluation of N-arylpiperazine derivatives of 4,4-dimethylisoquinoline-1,3(2H,4H)-dione as potential antiplatelet agents” (Journal of Enzyme Inhibition and Medicinal Chemistry, 2018).

SMILES strings stand for the structures. ≈ marks a conversion by molar mass, not a printed value.

The target of one series is T1, alpha 2B-AR (Homo sapiens, UniProt P18089).
T1 sequence (P18089 1-450): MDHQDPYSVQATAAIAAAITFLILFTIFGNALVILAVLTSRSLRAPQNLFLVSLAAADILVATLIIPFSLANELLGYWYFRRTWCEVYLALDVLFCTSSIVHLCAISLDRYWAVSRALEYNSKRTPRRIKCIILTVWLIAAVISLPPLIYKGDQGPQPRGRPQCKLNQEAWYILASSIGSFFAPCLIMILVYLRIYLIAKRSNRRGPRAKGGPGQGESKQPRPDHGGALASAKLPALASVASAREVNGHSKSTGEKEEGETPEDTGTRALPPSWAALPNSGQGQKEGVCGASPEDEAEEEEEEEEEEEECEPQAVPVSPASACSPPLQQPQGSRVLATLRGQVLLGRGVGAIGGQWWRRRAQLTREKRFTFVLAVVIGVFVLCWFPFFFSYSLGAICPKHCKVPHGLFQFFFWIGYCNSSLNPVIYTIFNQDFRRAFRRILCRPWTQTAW
The series can be described thus: Intrinsic activity assay, antagonist mode, cells with stable expression of the α2B-adrenoceptor. Particulars: antagonist potency, read-out: Antagonist mode (IC50 ± SEM). In kind it is cell-based. As for the experimental part:
An intrinsic activity assay was performed according to the instructions of the manufacturer of the assay kit containing ready-to-use cells with stable expression of the α2A-adrenoceptor (In-vitrogen, Life Technologies, Carlsbad, CA, USA) or α2B-adrenoceptor (PerkinElmer, Inc, Waltham, MA, USA).
Considering that a potent blockade of alpha 2B-ARs is required for the antiplatelet effect[8] ^, [9] we began an assessment of a pharmacological profile of all the synthesized molecules (3–11) with the evaluation of their alpha 2B-ARs antagonistic properties.

The test system of series [1] is whole rat blood aggregation induced by ADP and adrenaline. The series can be described thus: In vitro whole blood aggregation test induced by ADP and adrenaline (Multiplate). In kind it is cell-based. Particulars: for IC50: whole rat blood, ADP and adrenaline 1.6 µM + 50 µM, read-out: B (ADP + A) IC50. As for the experimental part:
(§1) In vitro aggregation tests were conducted using freshly collected whole blood with Multiplate platelet function analyzer (Roche Diagnostics Polska Sp. z o.o., Warsaw, Poland), the five-channel aggregometer based on measurements of electric impedance. The Multiplate analyzer allows the duplicate measurement with dual electrode probes. Blood was drawn from carotid of rats with hirudin blood tube (Roche Diagnostic). 300 μL of hirudin anticoagulated blood was mixed with 300 μL pre-warmed isotonic saline solution containing studied compound in DMSO or DMSO (0.1% final) and pre-incubated for 3 min at 37 °C with continuous stirring. The agonists (ADPtest, COLtest, Roche Diagnostic) were diluted using isotonic sterile NaCl solution. Aggregation was induced by adding collagen (final concentration 1.6 µg/mL), or adrenaline and subthreshod concentration of ADP (final concentration 50 µM + 1.6 µM). Activated platelet function was recorded for 6 min. The Multiplate software analyzed the area under the curve of the clotting process of each measurement and calculated the mean values.
(§2) Data were presented as Mean ± SEM. Statistical comparisons were made by the analysis of variance (ANOVA) and significance of the differences between control group and treated groups was determined by Dunnet post hoc test. p < .05 was considered significant.
(§3) Based on the aforementioned results, the most interesting compounds (3, 4, 9, and 10) were selected for further studies. In order to evaluate the anti-platelet effects of the new compounds in vitro, freshly isolated rat whole blood was incubated with selected compounds (3–100 μM) or vehicle (DMSO), and the aggregation responses were evaluated with multiplate whole blood aggregometer by measuring impedance change. Platelet aggregation was induced by collagen or sub-threshold concentration of ADP and adrenaline. ARC-239 was used as a reference compound.
Combining adrenaline with the sub-threshold concentration of ADP produced a maximal aggregation response. The adrenaline-mediated amplification of ADP-stimulated aggregation was attenuated when rat blood was pre-incubated with 3, 9, 10, and ARC-239.

A further series has as its target alpha 1-ARs. The series can be described thus: Radioligand binding assay, displacement of [3H]prazosin on rat cerebral cortex. To be noted: read-out: Affinity for alpha 1-ARs Ki ± SD. As for the experimental part: The affinity of the obtained compounds was evaluated by radioligand binding assays (the ability to displace [3H] prazosin and [3H]clonidine from a1- and a2-AR, respectively) on rat cerebral cortex. The brains are homogenised in 20 volumes of an ice-cold 50 mM Tris–HCl buffer (pH 7.6) and is centrifuged at 20,000 g for 20 min (0–4 °C). The cell pellet is resus-pended in the Tris–HCl buffer and centrifuged again. Radioligand binding assays are performed in plates (MultiScreen/Millipore). The final incubation mixture (final volume 300 μL) consisted of 240 µl of the membrane suspension, 30 μL of [3H]prazosin (0.2 nM) or [3H]clonidine (2 nM) solution and 30 μL of the buffer containing seven to eight concentrations (1.0^−11 to 1.0^−4 M) of the tested compounds. For measuring the unspecific binding, phentolamine, 10 µM (in the case of [3H]prazosin) and clonidine, 10 μM (in the case of [3H]clonidine) are applied. The incubation is terminated by rapid filtration over glass fiber filters (Whatman GF/C) using a vacuum manifold (Millipore). The filters are then washed twice with the assay buffer and placed in scintillation vials with a liquid scintillation cocktail. Radioactivity was measured in a WALLAC 1409 DSA liquid scintillation counter. All the assays were performed in duplicate.
Subsequently, we determined the selectivity vs. alpha 1-adrenoreceptor (Table 4). The final compounds 3–11 were submitted to a radioligand binding assay, measuring the ability to displace [^3H] prazosin from alpha 1-ARs, in the rat cerebral cortex. […] On the other hand, the introduction of a hydrophobic group into meta position of the phenylpiperazine ring (3, 4, 5, 6) caused a relatively weaker decrease. […] The incorporation of a bulky substituents such as; 2,2-dimethylbenzo[d][1,3]dioxole (9), benzo[d]oxazol-2(3H)-one (10), 2H-benzo[b][1,4]oxazin-3(4H)-one (11) maintained the affinity for alpha1-ARs.

Series [2] relates to whole rat blood aggregation induced by collagen. Briefly: In vitro whole blood aggregation test induced by collagen (Multiplate). In kind it is cell-based. Particulars: for IC50: whole rat blood, collagen 1.6 µg/mL; for anti-platelet efficacy at lower concentration: compound at 30 μM. As for the experimental part:
as §1, §2, §3

Series [3] is described as follows: Protein binding (plasma, human). To be noted: 1.0E-05 M. It counts as in vitro ADME. As for the experimental part:
(§4) The in vitro bioavailability assays were performed by Eurofins Panlabs Inc. (St Charles, USA) according to the methods reported in publications listed below:
Protein binding: Banker, M.J et al. (2003) J. Pharm. Sci., 92:967–974[33],
(§5) Concerning the described above results, for the most promising compound 3, we performed early in vitro bioavailability assays, including aqueous solubility, human plasma protein binding, human liver microsomes stability, and Caco-2 permeability (Eurofins Bioavailability panel).

A short description of another series: Caco-2 permeability. Particulars: human; Caco-2, pH 6.5/7.4; 1.0E-05 M. In kind it is in vitro ADME. As for the experimental part:
as §4
Caco-2 permeability: Hidalgo, I.J et al. (1989) Gastroenterology, 96:736–749[34],
as §5

The nature of series [4]: Metabolic stability (liver microsomes, human). In kind it is in vitro ADME. As for the experimental part:
as §4
Microsomal stability: Obach, R.S et al. (1997) J Pharmacol Exp Ther, 283:[…][35].
as §5

A short description of series [5]: Aqueous solubility (Eurofins bioavailability panel). Particulars: kinetic from dmso stock. In kind it is physicochemical. As for the experimental part: as §4
Solubility: Lipinski, C.A et al. (2001) Adv Drug Del Rev, 46:3–26[32],
as §5

Take `COc1ccccc1N1CCN(CCN2C(=O)c3ccccc3C(C)(C)C2=O)CC1` [ARC-239, reference compound]: the IC50 (usually the midpoint of a concentration-inhibition curve) on alpha 2B-AR was 8.4 ± 3.2 nM; in series [1], 63900 ± 21300 nM; in series [2] it was 20700 ± 14700 nM. Moreover, at alpha 1-ARs, the Ki (commonly a measure of affinity in units of concentration, obtained from inhibition or displacement) worked out at 0.3 nM.

With `CC1(C)C(=O)N(CCN2CCN(c3cccc(F)c3)CC2)C(=O)c2ccccc21` [Compound 3, 2–(2-(4–(3-Fluorophenyl)piperazin-1-yl)ethyl)-4,4-dimethylisoquinoline-1,3(2H,4H)-dione], in series [3], the “% Protein bound” value came to 99%. For the same molecule, the half-inhibitory concentration (IC50) at alpha 2B-AR was determined as 61 ± 25.4 nM; in series [1], 20500 ± 7100 nM; in series [2], 26900 ± 18800 nM. Further, the Papp A→B (in general, the apparent permeability from the apical to the basolateral side of a cell layer) at 10 µM in the series “Caco-2 permeability” stood at 7.7 ×10⁻⁶ cm/s. Also, in the series “Caco-2 permeability”, the Papp B→A (usually the apparent permeability from the basolateral to the apical side of a cell layer) at 10 µM was 2.6 ×10⁻⁶ cm/s. Also, the half-life (in general, the time needed for the level to fall by half in the phase considered) at 100 nM in series [4] (1.0E-07 M) amounted to 14.1 min. Also, the microsomal CLint at 100 nM in series [4] (1.0E-07 M, read-out: Intrinsic clearance) is 14 µL/min/mg. Further, the “% Compound remaining” value in series [4] (incubation time 0 minutes) was 100.0%; in series [4] (incubation time 15 minutes), 49%; in series [4] (incubation time 30 minutes), 18%; in series [4] (incubation time 45 minutes) it was 8%; in series [4] (incubation time 60 minutes), 6%. Besides, the Ki at alpha 1-ARs amounted to 30 ± 1 nM. The “anti-platelet efficacy at lower concentration” value in series [2] (collagen-induced) is given as “significant anti-platelet efficacies”. In addition, the solubility – broadly, the concentration that dissolves in the medium under given conditions – in series [5] (PBS, pH 7.4, aqueous buffer) is 5.4 µM (≈ 2.14 µg/mL); in series [5] (fassgf or other biorelevant, simulated intestinal fluid, test concentration 2.0E-04 M), 68 µM (≈ 26.9 µg/mL); in series [5] (simulated gastric fluid), 151 µM (≈ 59.7 µg/mL).

With `CC1(C)C(=O)N(CCN2CCN(c3cccc(Cl)c3)CC2)C(=O)c2ccccc21` [Compound 4, 2–(2-(4–(3-Chlorophenyl)piperazin-1-yl)ethyl)-4,4-dimethylisoquinoline-1,3(2H,4H)-dione], the IC50 at alpha 2B-AR was 251 ± 71 nM; in series [2], 34500 ± 2500 nM. In series [1] (up to 100 μM), the “inhibition against ADP and adrenaline induced blood aggregation” value is reported as “did not exhibit any significant inhibition”. Moreover, the Ki at alpha 1-ARs is 93 ± 2 nM. Further, in series [2] (collagen-induced), the “anti-platelet efficacy at lower concentration” value is “significant anti-platelet efficacies”.

As for `CC1(C)C(=O)N(CCN2CCN(c3cccc(C(F)(F)F)c3)CC2)C(=O)c2ccccc21` [Compound 5, 4,4-Dimethyl-2–(2-(4–(3-(trifluoromethyl)phenyl)piperazin-1-yl)ethyl)isoquinoline-1,3(2H,4H)-dione], the IC50 at alpha 2B-AR is more than 1000 nM. Also, the Ki on alpha 1-ARs was 703 ± 1 nM.

Take `COc1cccc(N2CCN(CCN3C(=O)c4ccccc4C(C)(C)C3=O)CC2)c1` [Compound 6, 2–(2-(4–(3-Methoxyphenyl)piperazin-1-yl)ethyl)-4,4-dimethylisoquinoline-1,3(2H,4H)-dione]: the IC50 at alpha 2B-AR is more than 1000 nM. In addition, the Ki at alpha 1-ARs was 78.4 ± 3.8 nM.

Take `CC1(C)C(=O)N(CCN2CCN(c3cccc(O)c3)CC2)C(=O)c2ccccc21` [Compound 7, 2–(2-(4–(3-hydroxyphenyl)piperazin-1-yl)ethyl)-4,4-dimethylisoquinoline-1,3(2H,4H)-dione]: at alpha 2B-AR, the IC50 is 758 ± 160 nM. Moreover, the Ki at alpha 1-ARs was determined as 81.7 ± 5.5 nM.

For the molecule `CC1(C)C(=O)N(CCN2CCN(c3ncccn3)CC2)C(=O)c2ccccc21` [Compound 8, 4,4-Dimethyl-2–(2-(4-(pyrimidin-2-yl)piperazin-1-yl)ethyl)isoquinoline-1,3(2H,4H)-dione], the IC50 at alpha 2B-AR was more than 1000 nM. In addition, on alpha 1-ARs, the Ki was determined as 1500 ± 100 nM.

Regarding `CC1(C)Oc2cccc(N3CCN(CCN4C(=O)c5ccccc5C(C)(C)C4=O)CC3)c2O1` [Compound 9, 2–(2-(4–(2,2-Dimethylbenzo[d][1,3]dioxol-4-yl)piperazin-1-yl)ethyl)-4,4-dimethylisoquinoline-1,3(2H,4H)-dione], the IC50 on alpha 2B-AR was found to be 47 ± 12.8 nM; in series [1], 54400 ± 5400 nM; in series [2], 27400 ± 5300 nM. Moreover, on alpha 1-ARs, the Ki amounted to 30 ± 0.2 nM. Moreover, the “anti-platelet efficacy at lower concentration” value in series [2] (collagen-induced) was “significant anti-platelet efficacies”. Moreover, in series [2] (collagen-induced, compound at 100 μM), the “platelet aggregation attenuated to” value is recorded as 59.3%.

As to `CC1(C)C(=O)N(CCN2CCN(c3cccc4[nH]c(=O)oc34)CC2)C(=O)c2ccccc21` [Compound 10, 4,4-Dimethyl-2–(2-(4–(2-oxo-2,3-dihydrobenzo[d]oxazol-7-yl)piperazin-1-yl)ethyl)isoquinoline-1,3(2H,4H)-dione], the figures for the IC50 (on alpha 2B-AR; in series [1]) were 61 ± 22.5 nM and 76500 ± 5800 nM, respectively. Also, the Ki on alpha 1-ARs turned out to be 10.3 ± 0.3 nM.

Regarding `CC1(C)C(=O)N(CCN2CCN(c3cccc4c3OCC(=O)N4)CC2)C(=O)c2ccccc21` [Compound 11, 4,4-Dimethyl-2–(2-(4–(3-oxo-3,4-dihydro-2H-benzo[b][1,4]oxazin-8-yl)piperazin-1-yl)ethyl)isoquinoline-1,3(2H,4H)-dione], on alpha 2B-AR, the IC50 was more than 1000 nM. In addition, the Ki on alpha 1-ARs worked out at 3 ± 0.1 nM.
